Results as given in patent publication US6989371B1, “Bombesin analogs for treatment of cancer” (Dabur Research Foundation, priority 1996, dated 2006).
Non-standard residues stand in square brackets, D forms with d. Residues, ends and D or L forms follow the SMILES beside them. Aib = CC(C)(N)C(=O)O

Tests used:
intact SCLC cells = conditions: 37° C., RPMI medium, 0–1080 minutes; cited from earlier work
SCLC xenograft = conditions: in vivo; cited from earlier work
[1] = system: MCF-7 MIII human breast cancer cell line xenografts; conditions: MCF-7 MIII xenografts, female athymic nude mice, after 2 weeks of treatment, alone or in combination with SB-75; cited from earlier work
[2] = system: human gastric cancer cell line Hs746T xenografts; conditions: nude mice bearing Hs746T xenografts; cited from earlier work
PTC (colon) = assay: two day MTT cytotoxicity assay (Example 12); type: cell-based, human; conditions: 48 hrs
Experimental: (§1) The cytoxicity of the peptide analog was carried out by two day MTT [3-(4,5-dimethylthiazol-2-yl)-2,5-diphenyl tetrazolium bromide]assay. MTT assay is based on the principle of uptake of MTT, a tetrazolium salt, by metabolically active cells where it is metabolized by active mitochondria into a blue colored formazon product, which can be read spectrometrically (J. of Immunological Methods 65: 55–63, 1983). To prepare the MTT stock solution needed, MTT was dissolved in phosphate buffered saline with a pH of 7.4 to obtain an MTT concentration of 5 mg/ml; the resulting mixture was filtered through a 0.22 micron filter to sterilize and remove a small amount of insoluble residue. This filtered mixture was the MTT stock solution.
(§2) Briefly, for each tumor type, 10,000 cells were seeded in 96-well tissue culture plate and incubated with each peptide concentration individually in a CO2 incubator for 48 hrs. The peptide analog at different concentrations was added once every 24 hrs during the incubation period. Control cultures, which were not treated with the peptide was similarly incubated. The assay was terminated by adding 100 μg (20 μl) of MTT to each well, incubating for three hours, decanting supernatant and finally adding 150 μl of dimethylsulphoxide to each well to dissolve the formazon. The plates were incubated for 15 minutes at 37° C. and read spectrophotometrically at 540 nm; and cytotoxicity percentage was calculated by following formula: • Cytotoxicity Percentage=100×[1−X/R1], • where X=(absorbance of the treated sample at 540 nm-absorbance of a blank at 540 nn) and • R1=(absorbance of the untreated control at 540 nm)—(absorbance of the blank at 540 nm).
(§3) Thus in each of the MTT cytotoxicity assay the percentage was calculated according to the above formula and was based on the proliferation of the untreated controls, the value of which was considered as 100°0.
(§4) The biological activity of synthesized peptide SEQ ID NO:3 was tested on different human tumor cell lines such as HT-29 & PTC (colon), A549 (non small lung cell), KB (oral squamous cell), MCF7 & MDA.MB.453 (Breast), HuTu80 (duodenum), PA-1 (ovary), MOLT-4 (leukemia) and MlAPaCa2 (Pancreas) at various molar concentrations.

HuTu80 (duodenum) = assay: two day MTT cytotoxicity assay (Example 12); type: cell-based, human
Experimental: as §1, §2, §3, §4

[3] = system: A549 (non small lung cell); assay: two day MTT cytotoxicity assay (Example 12); type: cell-based, human
Experimental: as §1, §2, §3, §4

MCF7 (Breast) = assay: two day MTT cytotoxicity assay (Example 12); type: cell-based, human
Experimental: as §1, §2, §3, §4

PA-1 (ovary) = assay: two day MTT cytotoxicity assay (Example 12); type: cell-based, human
Experimental: as §1, §2, §3, §4

KB (oral squamous cell) = assay: two day MTT cytotoxicity assay (Example 12); type: cell-based, human; conditions: 48 hrs
Experimental: as §1, §2, §3, §4

MlAPaCa2 (Pancreas) = assay: two day MTT cytotoxicity assay (Example 12); type: cell-based, human
Experimental: as §1, §2, §3, §4

HT-29 (colon) = assay: two day MTT cytotoxicity assay (Example 12); type: cell-based, human
Experimental: as §1, §2, §3, §4

MOLT-4 (leukemia) = assay: two day MTT cytotoxicity assay (Example 12); type: cell-based, human
Experimental: as §1, §2, §3, §4

MDA.MB.453 (Breast) = assay: two day MTT cytotoxicity assay (Example 12); type: cell-based, human
Experimental: as §1, §2, §3, §4

## [Psi 13, 14] Bombesin
Intact SCLC cells
  TI/2 (stability to metabolic enzymes): 646 min
SCLC xenograft
  SCLC xenograft formation: inhibited SCLC xenograft formation in vivo in a dose-dependent manner

## (DTpi6, Leu3, psi[CH2NH]—Leu14) bombesin (6–14) [RC-3095]
[1]
  tumor volume: significant inhibition of tumor volume
[2]
  tumor growth: effectively inhibited tumor growth

## CC(C)C[C@H](NC(=O)[C@H](Cc1c[nH]cn1)NC(=O)C(C)(C)NC(=O)[C@@H](NC(=O)[C@H](C)NC(=O)[C@H](Cc1c[nH]c2ccccc12)NC(=O)[C@H](CCC(N)=O)NC(=O)[C@H](N)Cc1ccccc1)C(C)C)C(N)=O [SEQ ID NO: 3, D-Phe-Gln-Trp-Ala-Val-Aib-His-Leu-NH2] (H-[dF]QWAV[Aib]HL-NH2; N-terminus assumed)
PTC (colon); 10 pM
  Percentage cytotoxicity: 80.0 ± 7.1%
PTC (colon); 100 pM
  Percentage cytotoxicity: 26.5 ± 3.8%
PTC (colon); 10 nM
  Percentage cytotoxicity: 27.7 ± 3.6%
PTC (colon); 100 nM
  Percentage cytotoxicity: 27.7 ± 2.8%
PTC (colon); 1 μM
  Percentage cytotoxicity: 17.9 ± 2.5%
PTC (colon)
  Percentage cytotoxicity: 23.8 ± 2.8%
HuTu80 (duodenum); HuTu80, 10 pM, 48 hrs
  Percentage cytotoxicity: 10.3 ± 3.5%
HuTu80 (duodenum); HuTu80, 100 pM, 48 hrs
  Percentage cytotoxicity: 14.7 ± 4.2%
HuTu80 (duodenum); HuTu80, 10 nM, 48 hrs
  Percentage cytotoxicity: 14.3 ± 3.5%
HuTu80 (duodenum); HuTu80, 100 nM, 48 hrs
  Percentage cytotoxicity: 15.5 ± 4.7%
HuTu80 (duodenum); HuTu80, 1 μM, 48 hrs
  Percentage cytotoxicity: 12.2 ± 4.0%
HuTu80 (duodenum); HuTu80, 48 hrs
  Percentage cytotoxicity: 13.3 ± 4.0%
[3]; A549, 10 pM, 48 hrs
  Percentage cytotoxicity: 30.5 ± 3.5%
[3]; A549, 100 pM, 48 hrs
  Percentage cytotoxicity: 25.2 ± 3.5%
[3]; A549, 10 nM, 48 hrs
  Percentage cytotoxicity: 32.2 ± 5.5%
[3]; A549, 100 nM, 48 hrs
  Percentage cytotoxicity: 23.6 ± 4.5%
[3]; A549, 1 μM, 48 hrs
  Percentage cytotoxicity: 30.7 ± 6.5%
[3]; A549, 48 hrs
  Percentage cytotoxicity: 32.4 ± 4.5%
MCF7 (Breast); MCF 7, 10 pM, 48 hrs
  Percentage cytotoxicity: 39.33 ± 2.6%
MCF7 (Breast); MCF 7, 100 pM, 48 hrs
  Percentage cytotoxicity: 38.95 ± 4.5%
MCF7 (Breast); MCF 7, 10 nM, 48 hrs
  Percentage cytotoxicity: 24.35 ± 5%
MCF7 (Breast); MCF 7, 100 nM, 48 hrs
  Percentage cytotoxicity: Nil
MCF7 (Breast); MCF 7, 1 μM, 48 hrs
  Percentage cytotoxicity: Nil
MCF7 (Breast); MCF 7, 48 hrs
  Percentage cytotoxicity: 30.68 ± 6%
PA-1 (ovary); PA-1, 10 pM, 48 hrs
  Percentage cytotoxicity: 37.7 ± 3.9%
PA-1 (ovary); PA-1, 100 pM, 48 hrs
  Percentage cytotoxicity: 40.1 ± 6.2%
PA-1 (ovary); PA-1, 10 nM, 48 hrs
  Percentage cytotoxicity: 25.4 ± 4.2%
PA-1 (ovary); PA-1, 100 nM, 48 hrs
  Percentage cytotoxicity: 34.2 ± 5.8%
PA-1 (ovary); PA-1, 1 μM, 48 hrs
  Percentage cytotoxicity: 31.2 ± 5.1%
PA-1 (ovary); PA-1, 48 hrs
  Percentage cytotoxicity: 36.1 ± 6.1%
KB (oral squamous cell); 10 pM
  Percentage cytotoxicity: 40.9 ± 5.5%
KB (oral squamous cell); 100 pM
  Percentage cytotoxicity: 26.4 ± 4.5%
KB (oral squamous cell); 10 nM
  Percentage cytotoxicity: 30.9 ± 5.5%
KB (oral squamous cell); 100 nM
  Percentage cytotoxicity: 31.6 ± 6.5%
KB (oral squamous cell); 1 μM
  Percentage cytotoxicity: 32.1 ± 5.0%
KB (oral squamous cell)
  Percentage cytotoxicity: 30.4 ± 6.5%
MlAPaCa2 (Pancreas); MIAPaCa2, 10 pM, 48 hrs
  Percentage cytotoxicity: 27.4 ± 4.5%
MlAPaCa2 (Pancreas); MIAPaCa2, 100 pM, 48 hrs
  Percentage cytotoxicity: 28.2 ± 4.5%
MlAPaCa2 (Pancreas); MIAPaCa2, 10 nM, 48 hrs
  Percentage cytotoxicity: 33.2 ± 6.7%
MlAPaCa2 (Pancreas); MIAPaCa2, 100 nM, 48 hrs
  Percentage cytotoxicity: 30.3 ± 4.2%
MlAPaCa2 (Pancreas); MIAPaCa2, 1 μM, 48 hrs
  Percentage cytotoxicity: 33.3 ± 4.5%
MlAPaCa2 (Pancreas); MIAPaCa2, 48 hrs
  Percentage cytotoxicity: 36.4 ± 0.5%
HT-29 (colon); HT29, 10 pM, 48 hrs
  Percentage cytotoxicity: 18.7 ± 4.5%
HT-29 (colon); HT29, 100 pM, 48 hrs
  Percentage cytotoxicity: 19.9 ± 5.5%
HT-29 (colon); HT29, 10 nM, 48 hrs
  Percentage cytotoxicity: 11.8 ± 5.0%
HT-29 (colon); HT29, 100 nM, 48 hrs
  Percentage cytotoxicity: 17.8 ± 4.5%
HT-29 (colon); HT29, 1 μM, 48 hrs
  Percentage cytotoxicity: 25.4 ± 5.5%
HT-29 (colon); HT29, 48 hrs
  Percentage cytotoxicity: 20.3 ± 4.5%
MOLT-4 (leukemia); MOLT-4, 10 pM, 48 hrs
  Percentage cytotoxicity: 49.9 ± 4.1%
MOLT-4 (leukemia); MOLT-4, 100 pM, 48 hrs
  Percentage cytotoxicity: 15.9 ± 3.0%
MOLT-4 (leukemia); MOLT-4, 10 nM, 48 hrs
  Percentage cytotoxicity: Nil
MOLT-4 (leukemia); MOLT-4, 100 nM, 48 hrs
  Percentage cytotoxicity: 1.4 ± 1.0%
MOLT-4 (leukemia); MOLT-4, 1 μM, 48 hrs
  Percentage cytotoxicity: 9.0 ± 1.2%
MOLT-4 (leukemia); MOLT-4, 48 hrs
  Percentage cytotoxicity: 1.0 ± 0.4%
MDA.MB.453 (Breast); MDA.MB.453, 10 pM, 48 hrs
  Percentage cytotoxicity: 49.5 ± 4.2%
MDA.MB.453 (Breast); MDA.MB.453, 100 pM, 48 hrs
  Percentage cytotoxicity: 25.5 ± 2.9%
MDA.MB.453 (Breast); MDA.MB.453, 10 nM, 48 hrs
  Percentage cytotoxicity: Nil
MDA.MB.453 (Breast); MDA.MB.453, 100 nM, 48 hrs
  Percentage cytotoxicity: 11.2 ± 3.1%
MDA.MB.453 (Breast); MDA.MB.453, 1 μM, 48 hrs
  Percentage cytotoxicity: 5.6 ± 3.5%
MDA.MB.453 (Breast); MDA.MB.453, 48 hrs
  Percentage cytotoxicity: 9.6 ± 1.9%
